Test results: patent publication US6277872A, “Oxadiazoles, processes for their preparation and their use as medicaments” (Boehringer Ingelheim KG, priority 1996, dated 2001)

How the values were obtained:
[1] = tested on: AMPA receptor; assay: Inhibition of the cainate-induced signal at the AMPA receptor, electrophysiology on neuronal cells (Patch-Clamp-Method); assay type: cell-based; conditions: test concentration of 100 μM
Experimental: The tests were carried out at a test concentration of 100 μM.

[2] = tested on: "Na+ channel site 2"-binding site; assay: Binding to the Na+ channel site 2 binding site ([3H]-BTX); conditions: test concentration typically 10 μM
Experimental: (§1) The tests were typically carried out at a test concentration of 10 μM.

[3] = tested on: Sigma receptor; assay: Sigma receptor binding study; conditions: test concentration typically 10 μM
Experimental: as §1

[4] = target: T1, Histamine H1 receptor (Cavia porcellus, UniProt P31389); assay: Histamine H1 receptor binding study; conditions: test concentration typically 10 μM; read-out: H1 Inh. [%]
T1 construct: from tissue
T1 sequence (P31389 whole entry): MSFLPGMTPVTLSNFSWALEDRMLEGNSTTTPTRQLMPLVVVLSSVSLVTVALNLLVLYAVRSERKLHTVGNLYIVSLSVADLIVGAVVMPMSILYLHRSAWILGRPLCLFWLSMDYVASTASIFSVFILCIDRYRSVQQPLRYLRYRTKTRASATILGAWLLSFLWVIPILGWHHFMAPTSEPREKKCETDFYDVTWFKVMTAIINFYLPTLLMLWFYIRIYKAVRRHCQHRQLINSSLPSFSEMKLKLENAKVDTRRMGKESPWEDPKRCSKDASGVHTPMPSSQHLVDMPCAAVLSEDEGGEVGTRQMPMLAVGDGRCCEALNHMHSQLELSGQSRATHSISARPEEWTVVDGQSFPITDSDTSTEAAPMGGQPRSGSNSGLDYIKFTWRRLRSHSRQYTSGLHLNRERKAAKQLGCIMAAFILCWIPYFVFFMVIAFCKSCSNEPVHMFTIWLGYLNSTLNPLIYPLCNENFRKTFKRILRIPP
From the text: Table 5 summarises the inhibitory values on the above receptors:

| Structure (SMILES) | AMPA Inh. [%] (inhibiting the cainate-induced signal at the AMPA receptor) [1] | Na+-channel Inh. [%] ([3H]-BTX) [2] | Sigma Inh. [%] [3] | inhibition at 10 µM [4] |
| --- | --- | --- | --- | --- |
| CN(C)CCOc1ccccc1-c1nc(-c2ccco2)no1 [Example 57, 5-{2-[2-(N,N-Dimethylamino)-ethyl]oxy-phenyl}-3-(2-furyl)-1,2,4-oxadiazole] | 51% | 54% | 49% | 90% |
| CCN(CC)CCOc1ccccc1-c1nc(-c2ccccc2)no1 [Example 12, 5-{2-[2-(N,N-Diethylamino)ethyl]-oxy-phenyl}-3-phenyl-1,2,4-oxadiazole] | 85% | 90% | 68% | 87% |
| CN(C)CCOc1ccccc1-c1nc(-c2ccc(F)cc2)no1 [Example 45, 5-{2-[2-(N,N-Dimethylamino)-ethyl]oxy-phenyl}-3-(4-fluoro-phenyl)-1,2,4-oxadiazole] | 64% | 79% | 85% | 98% |
| CN(C)CCOc1ccccc1-c1nc(-c2ccc(Cl)cc2Cl)no1 [Example 28, 5-{2-[2-(N,N-Dimethylamino)-ethyl]oxy-phenyl}-3-(2,4-dichloro-phenyl)-1,2,4-oxadiazole] | 87% | 91% | 84% | 92% |
| CN(C)CCOc1ccccc1-c1nc(C2CC2)no1 [Example 55, 5-{2-[2-(N,N-Dimethylamino)-ethyl]oxy-phenyl}-3-cyclopropyl-1,2,4-oxadiazole] | 81% | – | – | – |
| c1ccc(-c2noc(-c3ccccc3OCCN3CCOCC3)n2)cc1 [Example 4, 5-{2-[2-(Morpholino)ethyl]oxy-phenyl}-3-phenyl-1,2,4-oxadiazole] | 71% | 79% | 41% | 44% |
| Cc1ccc(-c2noc(-c3ccccc3OCCN(C)C)n2)cc1 [Example 17, 5-{2-[2-(N,N-Dimethylamino)-ethyl]oxy-phenyl}-3-(4-methyl-phenyl)-1,2,4-oxadiazole] | 97% | 80% | 65% | 78% |
| CN1CCN(c2ccccc2-c2nc(-c3ccccc3)no2)CC1 [Example 40, 5-[2-(4-methylpiperazin-1yl)-phenyl]-3-phenyl-1,2,4-oxadiazole] | 37% | 88% | 76% | 99% |
| CN(C)CCOc1ccccc1-c1nc(-c2ccccn2)no1 [Example 43, 5-{2-[2-(N,N-Dimethylamino)-ethyl]oxy-phenyl}-3-(2-pyridyl)-1,2,4-oxadiazole] | 77% | 72% | 0% | 86% |
| Cc1ccccc1-c1noc(-c2ccccc2OCCN(C)C)n1 [Example 33] | 87% | 84% | 77% | 87% |
| CN(C)CCOc1ccccc1-c1nc(-c2ccsc2)no1 [Example 54, 5-{2-[2-(N,N-Dimethylamino)-ethyl]oxy-phenyl}-3-(3-thienyl)-1,2,4-oxadiazole] | – | 62% | 68% | 95% |
| CN(C)CCOc1ccccc1-c1nc(-c2ccc(O)cc2)no1 [Example 8, 5-{2-[2-(N,N-Dimethylamino)ethyl]oxy-phenyl}-3-(4-hydroxyphenyl)-1,2,4-oxadiazole] | 97% | 87% | 59% | 94% |
